Reference: PubChem BioAssay AID179 (DTP/NCI, 2004)
Active and inactive are the calls of the source.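 How the source made its calls: active means compounds giving half or more protection of infected cells from virus-caused growth loss, again on retest; inactive means the rest.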 Where a SMILES comes first, the peptide text is derived from it.

Test system: CEM cells HIV-1 protection, formazan growth assay
Experiment: NCI AIDS Antiviral Assay
Conditions: for IC50: measured here: growth of uninfected CEM cells
Method in brief: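 Protection of CEM cells against HIV-1 measured as cell growth via soluble formazan read-out, with five concentrations tested on both infected and uninfected cells; failure to protect may reflect toxicity.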

With `Cc1nc2c(sc(=S)n2-c2ccccc2)c(=O)[nH]1` the EC50 was > 91.2 µM and the IC50 was > 91.2 µM.
With `CCc1c(O)c2c([nH]c1=O)SC(C)(C)CC2=NCC(C)C` the EC50 was > 11.5 µM and the IC50 was > 11.5 µM.
`O=C1CC[C@@H](S(=O)(=O)c2ccccc2)[C@H](/C=C/c2ccccc2)O1` was tested, and the outcome was “inactive”.
In the case of `Cc1cccc2c(=O)c([Se]c3coc4c(C)cccc4c3=O)coc12`, the EC50 is reported as > 33.1 µM and the IC50 is reported as > 33.1 µM.
For `COc1ccc2c(=O)c3ccoc3[nH]c2c1`, the EC50 was > 100 µM and the IC50 was > 100 µM.
For `CN1C/C(=C\c2ccc(N(C)C)cc2)C(=O)/C(=C/c2ccc(N(C)C)cc2)C1`, the EC50 was > 100 µM and the IC50 was > 100 µM.
For `COC(=O)C1Cc2ccc(O)c(O)c2CN1` (stereo not drawn), the EC50 was > 33.9 µM and the IC50 was 8.91 µM.
`COc1cc(/C=C2\C(=O)N(c3ccccc3Cl)C(c3ccccc3)S2(=O)=O)cc(OC)c1OC` (stereo not drawn) was tested, and the EC50 was > 200 µM and the IC50 was 85.1 µM.
With `O=C1NCC2(CCNCC2)N1` the EC50 was > 200 µM and the IC50 was > 200 µM.
For `CCC[CH2][Sn]1([CH2]CCC)[O]CC(COc2c(Cl)cc(Cl)cc2Cl)[O]1` (stereo not drawn), the EC50 was > 3.98 µM and the IC50 was 1.86 µM.
In the case of `NCCSSc1ccc([N+](=O)[O-])cc1`, the outcome is reported as “inactive”.
With `O=C(OCCNC(=O)N1CC1)OCCNC(=O)N1CC1` the EC50 was > 200 µM and the IC50 was > 200 µM.
`CC(=O)NC1Cc2ccccc2C1=O` (stereo not drawn) was tested, and the EC50 was > 200 µM and the IC50 was > 200 µM.
`OCC1CC2C=CCC(C2)C1` (stereo not drawn) was tested, and the outcome was “inactive”.
With `COC(=O)[C@@H]1COC(=O)N1` the EC50 was > 200 µM and the IC50 was > 200 µM.
`CC1(C)CC2(CC(C)(C)c3cc(O)c(O)cc32)c2cc(O)c(O)cc21` was tested, and the EC50 was > 275 µM and the IC50 was 14.1 µM.
`Cc1cc(S(=O)(=O)N=C2Nc3cccc4cccc(c34)N2)c(S)cc1Cl` gave an EC50 of 132 µM and an IC50 of 174 µM.
In the case of `COc1ccc(NC(=S)Nc2cc(C)ccn2)cc1`, the EC50 is reported as > 200 µM and the IC50 is reported as > 200 µM.
`CC(C)NC(=O)OCc1c(COC(=O)NC(C)C)n(C)c2c1ccc1sccc12` was tested, and the EC50 was > 200 µM and the IC50 was 2.14 µM.
In the case of `C=C(C)C1CC(=O)C(C)=C(O)C1` (stereo not drawn), the outcome is reported as “inactive”.
In the case of `[CH3][Ga]([CH3])[n]1cccn1`, the EC50 is reported as > 562 µM and the IC50 is reported as 74.1 µM.
For `O=C(ON=c1c2ccccc2ccc2ccccc12)c1cc([N+](=O)[O-])cc([N+](=O)[O-])c1`, the EC50 was > 200 µM and the IC50 was 20.4 µM.
With `Cn1c2ccccc2c2nc3ccccc3nc21` the EC50 was > 22.4 µM and the IC50 was > 22.4 µM.
With `CC(=O)N1C2=CCCC2(C)c2ccccc21` (stereo not drawn) the EC50 was > 200 µM and the IC50 was 56.2 µM.
In the case of `CC(=O)O[C@H]1C[C@H]2[C@@H](OC(C)=O)/C=C3\C[C@](C)(C(=O)[C@H](O)C(=C1C)C2(C)C)[C@@H](O)C[C@@H]3OC(=O)[C@H](O)[C@H](c1ccccc1)N(C)C`, the EC50 is reported as > 200 µM and the IC50 is reported as > 200 µM.
`Cc1cc(C)cc(N(C2C3CCC(C)(C2O)C3(C)C)S(=O)(=O)c2ccccc2)c1` (stereo not drawn) was tested, and the EC50 was > 200 µM and the IC50 was 24.5 µM.
For `CCCCCCCCC(C)CCCCCCCCC(=O)O` (stereo not drawn), the outcome was “inactive”.
`Nc1ccccc1S(=O)(=O)c1ccccc1` was tested, and the outcome was “active”.
In the case of `CN(NC(=O)/C(=C/c1ccc(O)cc1)NC(=O)c1ccccc1)c1ccnc2cc(Cl)ccc12`, the EC50 is reported as > 200 µM and the IC50 is reported as 10.2 µM.
For `CC1(C)OC(=O)C(=Cc2ccc(C#N)cc2)C(=O)O1`, the EC50 was > 513 µM and the IC50 was 2.29 µM.
`CNC(=S)SC1=NS(=O)(=O)c2ccccc2N1` was tested, and the EC50 was > 234 µM and the IC50 was 174 µM.
For `CC(NC(=O)CNC(=O)C(N)CO)C(=O)NC(CCC(=O)O)C(=O)NC(CCCCN)C(=O)NC(CO)C(=O)NC(CCCCN)C(=O)NC(CCCCN)C(=O)NC(CCCCN)C(=O)NCC(=O)NC(CO)C(=O)NC(CC(N)=O)C(=O)NC(C)C(=O)NC(Cc1cnc[nH]1)C(=O)NC(CO)C(=O)O` (stereo not drawn) (H-SGAEKSKKKGSNAHS-OH; configuration not given here), the outcome was “inactive”.
With `O=C(c1ccccc1Cl)c1c(O)c2ccccc2oc1=O` the EC50 was > 200 µM and the IC50 was > 200 µM.
For `O=c1c(-c2cccc(O)c2O)coc2cc(OC3OC(CO)C(O)C(O)C3O)ccc12` (stereo not drawn), the EC50 was > 200 µM and the IC50 was > 200 µM.
For `CCC(NC(=O)c1ccccc1SC(=O)CCCC[n+]1ccccc1)C(N)=O` (stereo not drawn), the EC50 was > 3.8 µM.
`O=C(O)c1cc(N=Cc2cc(O)ccc2O)ccc1O` was tested, and the EC50 was > 182 µM and the IC50 was 22.9 µM.
In the case of `OCC1OC(OC[C@H](COCc2ccccc2)OCc2ccccc2)C(O)C(O)C1O` (stereo partly drawn), the EC50 is reported as > 35.5 µM and the IC50 is reported as > 35.5 µM.
In the case of `Cc1ccc(N2CCC3(CC2)OCCO3)cc1`, the outcome is reported as “inactive”.
For `CCc1n[nH]c(=O)[nH]1`, the EC50 was > 200 µM and the IC50 was > 200 µM.
For `C=C1CN(S(=O)(=O)c2ccc(C)cc2)CCCN(CC2CC2)CCCN(S(=O)(=O)c2ccc(C)cc2)C1`, the EC50 was > 200 µM and the IC50 was 4.27 µM.
With `CC(NC(=O)C(C)C(=O)NCc1ccc(C(F)(F)F)cc1)C(N)=O` (stereo not drawn) the EC50 was > 200 µM and the IC50 was 115 µM.
`O=[N+]([O-])c1ccc(C2=Nc3ccccc3S(=O)C(c3ccccc3)C2)cc1` (stereo not drawn) was tested, and the EC50 was > 7.24 µM and the IC50 was > 7.24 µM.
In the case of `O=C(Nc1cccc([N+](=O)[O-])c1)C(=O)C(C(=O)c1ccccc1F)C1OC(=O)C2C=CC=CC21` (stereo not drawn), the EC50 is reported as > 282 µM and the IC50 is reported as 4.07 µM.
With `N#CC1(OC2CCCCO2)Cc2ccccc2C1` (stereo not drawn) the EC50 was > 200 µM and the IC50 was > 200 µM.
With `O=C1c2c([nH]ccc2=O)-c2nccc3c2c1nc1ccccc13` the EC50 was > 2 µM and the IC50 was 0.603 µM.
With `C=CC(CCC(C)OC(CCC)OCC)[Si](C)(C)C` (stereo not drawn) the EC50 was > 91.2 µM and the IC50 was > 91.2 µM.
